Laboratory results reported in patent publication US12552758B2, “Inhibitors of MLH1 and/or PMS2 for cancer treatment” (NeoPhore Limited, priority 2020, dated 2026).

Legend:
[1] = target: T1, recombinant N-terminal MLH1 (residues 15-340) (Homo sapiens (Human), UniProt P40692); experiment: Fluorescence polarisation assay for MLH1 (protocol for Examples 64, 76, 90 and 95); conditions: FP probe displacement, 100 nM N-terminal MLH1, 5 nM probe compound, non-binding surface plate, read immediately
Procedure: Fluorescence Polarisation Assay for MLH1 (Protocol for Examples 64, 76, 90 and 95)
Test compounds, as 10 mM DMSO stocks, were dispensed into a 384-well Low Flange Black Flat Bottom Polystyrene Non-binding Surface plate (Corning®, item number 3575) using a Labcyte Echo acoustic liquid handler. Test compounds were added to wells in columns 1-22 whilst DMSO was added to wells in columns 23 and 24 in order to normalise the plate. 20 μL of a 2× solution (200 nM) of recombinant N-terminal MLH1 (residues 15-340) in assay buffer (25 mM HEPES, pH 7.5, 250 mM NaCl, 10 mM MgCl2, 0.01% Triton X-100, 5 mM dithiothreitol) was added to all wells in columns 1-23 and 20 μL assay buffer was added to all wells in column 24 using an E1-ClipTip pipette (ThermoFisher). Plates were centrifuged for 1 minute at 250×g and were incubated at room temperature for 30 minutes prior to the addition of 20 μL of 2×(10 nM) 5-((5-(4-((2-(2,4-dihydroxy-5-isopropylbenzoyl)isoindolin-5-yl)methyl)piperazin-1-yl)pentyl)carbamoyl)-2-(6-(dimethylamino)-3-(dimethyliminio)-3H-xanthen-9-yl)benzoate in assay buffer (prepared from a 1 mM DMSO stock) with an E1-ClipTip pipette (ThermoFisher). The final concentration of N-terminal MLH1 was 100 nM and the final concentration of the probe compound was 5 nM. Compound plates were centrifuged for 1 minute at 250 xg for 1 minute and immediately read on a PheraStar FSX (fitted with 384-well aperture spoon and 590 675 675 FP optic module). The gain and focus were adjusted before each plate was read so that the polarisation of a no enzyme control (column 24) was equal to 35 mP. Data were normalised against the no inhibitor controls (column 23) and no enzyme controls (column 24).

[2] = target: recombinant N-terminal PMS2 (residues 1-365) (Homo sapiens (Human), UniProt P54278); experiment: Fluorescence polarisation assay for PMS2; type: binding; conditions: FP probe displacement; 10 nM N-terminal PMS2, 5 nM probe compound, read after 1 hour
Sequence of recombinant N-terminal PMS2 (residues 1-365) (P54278 1-365): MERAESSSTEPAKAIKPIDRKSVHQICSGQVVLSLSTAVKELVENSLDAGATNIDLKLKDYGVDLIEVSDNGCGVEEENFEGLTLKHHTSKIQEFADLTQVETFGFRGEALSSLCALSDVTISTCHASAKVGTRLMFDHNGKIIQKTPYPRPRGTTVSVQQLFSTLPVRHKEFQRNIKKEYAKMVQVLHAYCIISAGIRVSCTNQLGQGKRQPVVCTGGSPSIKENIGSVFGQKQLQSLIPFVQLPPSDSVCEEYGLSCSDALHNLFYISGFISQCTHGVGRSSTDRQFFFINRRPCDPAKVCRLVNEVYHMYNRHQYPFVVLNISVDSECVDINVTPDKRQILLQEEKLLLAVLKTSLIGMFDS
In short: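 Displacement of a 5 nM (final) fluorescent probe from 10 nM human PMS2 (residues 1–365) is read as polarisation after 1 h at room temperature, following 30 min compound–protein pre-incubation. No-enzyme (set to 35 mP) and no-inhibitor wells define normalisation.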

[3] = target: T1, recombinant N-terminal MLH1 (residues 15-340); experiment: Fluorescence polarisation assay for MLH1 (protocol for all Examples except Examples 64, 76, 90 and 95); type: binding; conditions: FP probe displacement; 100 nM N-terminal MLH1, 5 nM probe compound, read after 15 minutes; all Examples except 64, 76, 90 and 95
In short: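 N-terminal MLH1 (100 nM final) preincubated with compounds 30 min at room temperature, then rhodamine-labelled resorcinol probe added (5 nM final); fluorescence polarisation read after 15 min. Signal normalised to no-inhibitor and no-enzyme controls; serial dilutions for potency, single concentration for screening.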

T1 sequence (P40692 15-340): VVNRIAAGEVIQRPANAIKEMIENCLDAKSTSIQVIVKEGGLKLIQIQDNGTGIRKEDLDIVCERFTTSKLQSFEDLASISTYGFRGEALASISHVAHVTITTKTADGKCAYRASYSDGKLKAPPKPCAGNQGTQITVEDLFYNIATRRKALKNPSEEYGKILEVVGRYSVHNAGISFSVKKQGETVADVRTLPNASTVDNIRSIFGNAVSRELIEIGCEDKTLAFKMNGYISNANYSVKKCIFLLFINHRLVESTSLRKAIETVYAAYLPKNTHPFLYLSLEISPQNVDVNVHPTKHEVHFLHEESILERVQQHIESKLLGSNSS

IC50 [1] [µM]	IC50 [2] [µM]	IC50 [3] [µM]	SMILES
–	< 1	> 10	CCOc1c(C)c(O)cc(O)c1C(=O)N1Cc2ccc(CN3CCN(C)CC3)cc2C1 [Example 93, (2-Ethoxy-4,6-dihydroxy-3-methylphenyl)(5-((4-methylpiperazin-1-yl)methyl)isoindolin-2-yl)methanone]
–	< 1	> 10	Cc1c(O)cc(O)c(C(=O)N2Cc3ccc(CN4CCN(C)CC4)cc3C2)c1OCC1CCCCC1 [Example 94, (2-(Cyclohexylmethoxy)-4,6-dihydroxy-3-methylphenyl)(5-((4-methylpiperazin-1-yl)methyl)isoindolin-2-yl)methanone]
> 10	< 1	–	Cc1c(O)cc(O)c(C(=O)N2Cc3ccc(CN4CCN(C)CC4)cc3C2)c1OCC1CC1 [Example 95, (2-(Cyclopropylmethoxy)-4,6-dihydroxy-3-methylphenyl)(5-((4-methylpiperazin-1-yl)methyl)isoindolin-2-yl)methanone]

Second part, the compound before the results:

SMILES	IC50 [1] [µM]	IC50 [2] [µM]	IC50 [3] [µM]
Cc1c(O)cc(O)c(C(=O)N2Cc3ccccc3C[C@@H]2CO)c1OCc1ccccc1 [Example 64, (R)-(2-(benzyloxy)-4,6-dihydroxy-3-methylphenyl)(3-(hydroxymethyl)-3,4-dihydroisoquinolin-2(1H)-yl)methanone]	> 10	1 to 10	–
Cc1c(O)cc(O)c(C(=O)N2Cc3cccc(CN4CCOCC4)c3C2)c1OCc1ccccc1 [Example 76, (2-(Benzyloxy)-4,6-dihydroxy-3-methylphenyl)(4-(morpholinomethyl)isoindolin-2-yl)methanone]	> 10	1 to 10	–
Cc1c(O)cc(O)c(C(=O)N2Cc3cccc(OCc4cncnc4)c3C2)c1OCc1ccccc1 [Example 90, (2-(Benzyloxy)-4,6-dihydroxy-3-methylphenyl)(4-(pyrimidin-5-ylmethoxy)isoindolin-2-yl)methanone]	> 10	< 1	–
